From patent US6872727B1, “Polycyclic pyrimidine -2,4(1H,3H)-diones with functionalized alkyl residues at the 1- and/or 3-position(s); methods for their synthesis and pharmaceutical preparation” (Privates Institut fur Biomedizinische Forschung und Beratung, priority 1999, dated 2005)

Tests used:
[1] = biological target: T1, human matrix metalloproteinase-9 (MMP-9; gelatinase B) (Homo sapiens, UniProt P14780); assay: Inhibition of human matrix metalloproteinase-9 (gelatinase B); assay type: biochemical; details: trypsin-activated native MMP-9 from human buffy coat; for IC50: read-out: MMP-9 (50% inhibition)
T1 construct: from tissue; host or cells: human buffy coat (blood leukocytes)
Method: Native MMP-9 was reproducibly obtained with reasonable yield and purity from human buffy coat. Buffy coat, to which was added an appropriate volume of 10% (v/v) Triton-X-100 to obtain a final concentration of 0,4% detergent, was shaken on ice for 30 min; then, one volume of twofold-concentrated binding buffer (40 mM Tris-HCl pH 7,5, 10 mM CaCl2, 1 M NaCl, 0,2% (v/v) Triton X-100 was added and the mixture shaken on ice for a further 30 min.
The mixture was then centrifuged for 15 min at 16,000 rpm (30,590×g) in a Kendro SS-34 rotor at 4° C. and the resulting supernatant filtered over glass wool. The filtrate was incubated batchwise with gelatin-agarose equilibrated in binding buffer for 1 h on ice with continuous shaking The MMP-9-bound gelatin-agarose was then loaded into a chromatographic tube and the column washed with at least ten bed volumes of binding buffer, or until no protein was detected by absorbance at 280 nm in the wash buffer. MMP-9 was eluted from the gelatin affinity column by application of two bed volumes of binding buffer containing 5% (v/v) dimethylsulfoxide (DMSO).
The eluate was applied to a gel filtration column of Sephadex G-75 both to exchange buffer and to eliminate small amounts of contaminating MMP-2. The G-75 column was prepared and eluted with Buffer I [20 mM Tris-HCl pH 7,5, 5 mM CaCl2, 100 mM NaCl, 0,1% (v/v) Triton X-100].
The eluted MMP-9 includes the three characterized forms of the enzyme: monomer, homodimer, and heterodimer (complex with lipokalin). The purity of MMP-9 was estimated to be ca. 90%, with the remaining contaminating protein being fibronectin and small amounts of TIMPS.
The latent MMP-9 was activated by a 30-60 min incubation at 37° C. with 1/100 vol trypsin (10 mg ml^−1). The trypsin was subsequently inactivated by addition of the serine proteinase inhibitor phenlymethylsulfonylfluoride (PMSF) or the more specific trypsin inhibitor TLCK.
(§1) The enzymatic cleavage of commercially available synthetic internally quenched fluorigenic peptide substrates such as 7-methylcoumarin-4-yl-acetyl-prolyleucyl-glycyl-leucyl-(dinitrophenyl-L-α,β-diaminopropionyl)-alanyl-arginylamide (Mca-Pro-Leu-Gly-Leu-Dap(Dnp)-Ala-Arg-NH2) at the scissile -Gly-Leu-peptide bond separates the fluorescent Mca group from the dinitrophenol quencher, resulting in a strong linear increase in fluorescence intensity that can be readily measured in a fluorimeter (λexitation328 nm, λemission 393 nm) over the first few minutes of the reaction. The specificity of the assay for matrix metalloproteinases is provided by the type I collagen-derived sequence -Pro-Leu-Gly-Leu- in the synthetic substrate, as well as by the incubation conditions. To test the efficacy of the synthetic collagenase/MMP inhibitors, the residual enzymatic activity remaining after an incubation of enzyme plus different amounts of inhibitor is measured at a fixed enzyme and substrate concentration. For each inhibitor, three test series at different fixed substrate concentrations were carried out. From the time-dependent increase in fluorescence intensity measured, the velocity (v) of the enzymatic activity can be calculated as increase in arbitrary fluorescence intensity units per minute. The inhibition constant Ki is calculated graphically by the method of Dixon (1953) by plotting the reciprocal of the reaction velocity 1/v on the ordinate, and the inhibitor concentration on the abscissa. The x-intercept of the linear plot is defined as minus K1 value.
1984 μl assay buffer (100 mM Tris-HCl pH 7,5, 100 mM NaCl, 10 mM CaCl2, 0,05% Brij 35) • 2 μl inhibitor dissolved in DMSO, or DMSO alone as a solvent control • 4 μl enzyme (MMP-2, MMP-9, or the catalytic domain of MMP-8) • 10 μl Mca-Pro-Leu-Gly-Leu-Dap(Dnp)-Ala-Arg-NH2 in DMSO Method • 1. Incubate buffer, enzyme, and inhibitor for 5 min at room temperature, with stirring. • 2. Start the reaction by adding 10 μl substrate in DMSO • 3. Record the increase in fluorescence intensity over 2 min. […]

[2] = biological target: T2, catalytic domain of human matrix metalloproteinase-8 (MMP-8; neutrophil collagenase) (Homo sapiens, UniProt P22894); assay: Inhibition of catalytic domain of human MMP-8, fluorimetric assay, Dixon plot; assay type: biochemical; details: recombinant catalytic domain, Mca-Pro-Leu-Gly-Leu-Dap(Dnp)-Ala-Arg-NH2 substrate
T2 construct: express heterologously only the catalytic domain, rather than the entire MMP-8, in Escherichia coli; made in house; host or cells: Escherichia coli
Text: The catalytic domain of MMP-8 was chosen as a further test enzyme because of its high stability and constitutive activity, obviating the need for enzymatic or chemical activation, which is a well-known source of error, e.g. the commonly used organomercurial compounds used to activate pro-MMPs may interfere in subsequent assays or affect the activity of the enzyme, leading to erroneous interpretation of results. The cloning strategy was designed to express heterologously only the catalytic domain, rather than the entire MMP-8, in Escherichia coli. With the so-constructed expressed catalytic domain, we obtained a stable enzymatically active, highly pure enzyme that is well suited for routine investigation of the efficacy of the synthetic inhibitors and provides highly reproducible test results.
The cloning and expression of the recombinant catalytic domain of MMP-8 follows the protocol developed by Schnierer et al. (Schnierer, S., Kleine, T., Gote, T., Hilleman, A., Knäuper, V., and Tschesche, H., 1993, The recombinant catalytic domain of human neutrophil collagenase lacks type I collagen substrate specificity, Biochem. Biophys. Res. Commun. 191, 319-326).
as §1
1984 μl assay buffer (100 mM Tris-HCl pH 7,5, 100 mM NaCl, 10 mM CaCl2, 0,05% Brij 35) • 2 μl inhibitor dissolved in DMSO, or DMSO alone as a solvent control • 4 μl enzyme (MMP-2, MMP-9, or the catalytic domain of MMP-8) • 10 μl Mca-Pro-Leu-Gly-Leu-Dap(Dnp)-Ala-Arg-NH2 in DMSO Method • 1. Incubate buffer, enzyme, and inhibitor for 5 min at room temperature, with stirring. • 2. Start the reaction by adding 10 μl substrate in DMSO • 3. Record the increase in fluorescence intensity over 2 min. Confirmation of the Inhibitory Activity by Protein Zymographic Analysis

T1 sequence (P14780 107-707 limits assumed): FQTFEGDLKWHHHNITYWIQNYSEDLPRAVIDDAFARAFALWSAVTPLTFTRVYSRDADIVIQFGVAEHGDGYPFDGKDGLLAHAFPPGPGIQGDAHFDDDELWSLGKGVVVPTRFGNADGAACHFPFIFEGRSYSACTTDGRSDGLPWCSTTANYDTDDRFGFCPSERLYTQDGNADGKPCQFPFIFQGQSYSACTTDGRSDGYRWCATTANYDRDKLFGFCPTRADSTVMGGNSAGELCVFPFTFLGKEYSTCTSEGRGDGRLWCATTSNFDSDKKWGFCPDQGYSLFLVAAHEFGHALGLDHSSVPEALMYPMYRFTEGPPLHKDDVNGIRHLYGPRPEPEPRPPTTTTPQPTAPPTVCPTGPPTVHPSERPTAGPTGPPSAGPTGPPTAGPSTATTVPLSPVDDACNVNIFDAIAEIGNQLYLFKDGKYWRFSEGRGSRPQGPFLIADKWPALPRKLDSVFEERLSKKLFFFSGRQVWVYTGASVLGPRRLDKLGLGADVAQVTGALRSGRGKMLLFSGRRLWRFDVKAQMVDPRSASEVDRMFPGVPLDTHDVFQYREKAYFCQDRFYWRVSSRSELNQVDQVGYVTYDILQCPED
T2 sequence (P22894 100-262 limits assumed): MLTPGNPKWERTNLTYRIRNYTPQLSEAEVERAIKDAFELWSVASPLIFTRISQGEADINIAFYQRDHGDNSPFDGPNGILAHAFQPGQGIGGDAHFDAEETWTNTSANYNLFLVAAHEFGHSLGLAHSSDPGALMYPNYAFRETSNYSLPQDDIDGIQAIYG

SMILES	MMP-9 (50% inhibition) [1]	Ki [2] [µM]	IC50 [1] [µM]	MMP-8 (Ki value) [2]
CC(S)CCn1c(=O)[nH]c(=O)c2ccccc21 (racemic) [Example 3, (R,S)-1-(3-mercaptobut-1-yl)-chinazolin-2,4(1H,3H)-dione]	negative	38.5	–	–
CC(CCS)n1c(=O)[nH]c2ccccc2c1=O (racemic) [Example 18, (R,S)-3-[3-(1-methyl)-mercaptopropyl]-chinazolin-2,4(1H,3H)-dione]	–	6	10	–
O=c1[nH]c(=O)n(CCCS)c2ccccc12 [Example 4, 1-(3-mercaptopropyl)-chinazolin-2,4(1H,3H)-dione]	–	7	6	–
O=c1[nH]c(=O)n(CCS)c2ccccc12 [Example 5, 1-(2-mercaptoethyl)-chinazolin-2,4(1H,3H)-dione]	–	70	12.5	–
Cn1c(=O)c2ccccc2n(CCCS)c1=O [Example 7, 1-(3-mercaptoprop-1-yl)-3-methyl-chinazolin-2,4(1H,3H)-dione]	–	–	71.4	negative
O=c1[nH]c2ccccc2c(=O)n1CCCCS [Example 12, 3-(4-mercaptobut-1-yl)-chinazolin-2,4(1H,3H)-dione]	–	11	20	–
Cn1c(=O)c2sccc2n(CCCS)c1=O [Example 14, 1-(3-mercaptoprop-1-yl)-3-methyl-thieno(3,2-d)-pyrimidin-2,4(1H,3H)-dione]	–	–	50	negative
Cn1c(=O)c2sccc2n(CCS)c1=O [Example 17, 1-(2-mercaptoethyl)-3-methyl-thieno[3,2-d]-pyrimidine-2,4(1H,3H)-dione]	–	–	10	negative
